From patent EP4122467A1, “THX-B FOR TREATING AND PREVENTING CANCER AND METASTASIS” (Fundación del Sector Público Estatal Centro Nacional de …, priority 2021, dated 2023)
Entries after “also recorded” stand apart in the source; their conditions may differ.

Columns and labels:
[1] = system: mouse melanoma cells; experiment: Spontaneous metastasis model, mouse melanoma cells injected subcutaneously (Figure 1); type: in vivo, c57/BL6 mice
Method: • Figure 1. NGFR inhibition by THX-B reduces melanoma spontaneous metastasis. A-B) 200.000 lymph node metastatic mouse melanoma cells were subcutaneously in c57/BL6 mice. Animals were treated intra-peritoneally with THX-B (4 mg/Kg twice a week), starting on day 7 post-injection of tumor cells. Tumor volume (A) was measured twice a week using a caliper. LN and lung metastatic burden (B) were measured using the IVIS image system and represented as fold over vehicle treated mice. Error bars represent s.e.m. of 2 experiments (n = 8 mice, vehicle group and n = 10, THX-B group). C-D) Similarly, tumor growth (C) was measured in mice subcutaneously injected with lung metastatic mouse melanoma cells (200.000) and treated with vehicle or THX-B in the same conditions as A) (n=4-5mice per condition). D) Percentage of lung lobules with melanoma metastasis in animals with flank tumors originated by injecting B16F10 cells. p values were calculated by two-tailed Student's t test. • Figure 2. NGFR inhibition by THX-B reduces melanoma spontaneous metastasis in immunodeficient models. Lung metastatic human melanoma cells (500.000) were injected subcutaneously into the flank of nude mice. […] A) Tumor growth was measured with a caliper twice a week. B) Quantification of the percentage of lung lobules with melanoma metastasis was analyzed measuring Luc expression of tumor loci with the IVIS system. p values were calculated by two-tailed Student's t test. • Figure 3. […] A) Tumor volume was measured using a caliper. […] Distal metastases were analyzed measuring luciferase expression in the lungs using IVIS system. Error bars represent s.e.m of 3 experiment (n = 12 mice, vehicle group, n = 12, antiPD-L1 group; n=8 antiPDL1 and THX-B group). p values were calculated by two-tailed Student's t test. • Figure 4. […] Quantification of LYVE+ area was performed with ImageJ software and was normalized to total LN area in each section. Error bars represent s.e.m of 1 experiment (n = 6 LNs, 3 whole sections analyzed per nodule). p values were calculated by two-tailed Student's t test. • Figure 6. […]

[2] = system: Lung metastatic human melanoma cells; experiment: Spontaneous metastasis model in immunodeficient mice, human melanoma cells injected subcutaneously (Figure 2); type: in vivo, nude mice; conditions: immunodeficient models; THX-B 4 mg/Kg intraperitoneal twice a week from day 7; vs vehicle
Method: (§1) • Figure 1. NGFR inhibition by THX-B reduces melanoma spontaneous metastasis. A-B) 200.000 lymph node metastatic mouse melanoma cells were subcutaneously in c57/BL6 mice. Animals were treated intra-peritoneally with THX-B (4 mg/Kg twice a week), starting on day 7 post-injection of tumor cells. Tumor volume (A) was measured twice a week using a caliper. LN and lung metastatic burden (B) were measured using the IVIS image system and represented as fold over vehicle treated mice. Error bars represent s.e.m. of 2 experiments (n = 8 mice, vehicle group and n = 10, THX-B group). C-D) Similarly, tumor growth (C) was measured in mice subcutaneously injected with lung metastatic mouse melanoma cells (200.000) and treated with vehicle or THX-B in the same conditions as A) (n=4-5mice per condition). D) Percentage of lung lobules with melanoma metastasis in animals with flank tumors originated by injecting B16F10 cells. p values were calculated by two-tailed Student's t test. • Figure 2. […] A) Tumor growth was measured with a caliper twice a week. B) Quantification of the percentage of lung lobules with melanoma metastasis was analyzed measuring Luc expression of tumor loci with the IVIS system. p values were calculated by two-tailed Student's t test. • Figure 3. […] A) Tumor volume was measured using a caliper. […] Distal metastases were analyzed measuring luciferase expression in the lungs using IVIS system. […]

[3] = system: B16F1-R2 cells; experiment: Lymph node lymphangiogenesis, LYVE-1 staining of inguinal LNs of animals with flank tumors (Figure 5); type: in vivo; conditions: 2.5 mg/Kg THX-B intra-peritoneally twice a week from day 7; sacrificed at 21 days
Method: as §1

[4] = Drug levels and tissue distribution after intraperitoneal and oral administration; type: in vivo, mice
Method: In lymph nodes compound was detected at 8 hours with a concentration of 9 ng/ml.

[5] = system: proNGF/p75^NTR axis; experiment: Voiding spot assay (VSA) in diabetic mice; type: in vivo, C57BL/6 female mice
Method: Voiding spot assay: For the voiding spot assay (VSA), mice were placed individually with access to food without water for 2 h. The cage was fitted with a chromatography paper, grade 3 mm CHR (Whatman, GE Healthcare, UK) covered by a fine metallic mesh (2-3 mm pore size). The urine spot pattern was assessed by imaging the chromatography paper with ultraviolet light using SynGene Bioimaging system (USA) connected to GeneSnap software (Version 7.02, USA) and analysed by ImageJ software (Version: 2.0.0-rc-66/1.52n, NIH, USA) using a calibration curve and Void Whizzard free software plugin for FIJI (distribution of ImageJ, Version: 2.0.0-rc-66/1.52n, NIH, USA). Mice were acquainted to the procedure once to get accustomed, then the experiment was done once to obtain the voiding data.
(§2) Animal housing and treatments All experiments received the ethical approval from the Lady Davis Institute Ethics Board (No. 7859), Montreal, Canada. Housing and handling conformed with the Canadian Council for Animal Care (CCAC). One hundred and forty four 9-week-old C57BL/6 female mice were kept on a 12 h light/dark cycle with free access to food (standard Purina chow, Teklad Global, Wl, USA) and water. Diabetes was induced by i.p. injection of streptozotocin (60 mg/kg in citrate buffer, 10 mmol/l, pH 4.5 on 5 consecutive days) after 4-5 h fasting. Fasting serum glucose (FSG) was checked after 5-7 days using a glucometer (Contour next EZ, Bayer, ON, Canada) from the tail. FSG above 14 mmol/l was considered diabetic. Mice were divided into four groups without pre-considering their weight changes or glucose levels (for diabetic groups): control (42 mice); untreated diabetic (hereafter referred to as Dm; 42 mice); anti-proNGF mAb-treated diabetic mice (30 mice); and small molecule p75^NTR antagonist (THX-B)-treated diabetic mice (30 mice). […] This inhibitor antagonises ligand-dependent p75^NTR functions and, different from other anti-NGF mAbs, it is free of the off-target side effects resulting from inhibiting TrkA. We have observed that the molecule is detectable in systemic circulation for 2 weeks. The THX-B small molecule ((1,3-diisopropyl-1-[2-(1,3-dimethyl-2,6-dioxo-1,2,3,6-tetrahydro-purin-7-yl)-acetyl]-urea); molecular mass […]) is a synthetic chemical with an estimated systemic circulation half-life in vivo of 6-8 h.
(§3) Without blinding, i.p. injections of the drug molecules or the vehicle (PBS) were given weekly for four weeks, starting after 2 weeks of diabetes confirmation. A single starting proNGF mAb i.p. injection of 100 µg/mouse in 150 µl PBS was followed by 60 µg/mouse in 100µl PBS for the following three injections. THX-B was injected i.p. at a weekly dose of 50 µg/mouse in 125 µl PBS. Experimental time points (to carry out cystometry, contractility, protein extraction and histology) were baseline (two weeks after diabetes diagnosis included control and Dm groups only), week 2 after treatment (following 2 injection cycles) and week 4 after treatment (following 4 injection cycles). Body weight was measured weekly and FSG fortnightly for all groups. Six mice from each group were kept for another 2 weeks after the end of the study duration to observe the washout/prolonged effect of the molecules.

[6] = system: proNGF/p75^NTR axis; experiment: Bladder weight and morphology in diabetic voiding dysfunction model; type: in vivo, C57BL/6 female mice
Method: as §2, §3

[7] = system: proNGF/p75^NTR axis; experiment: Cystometry in diabetic voiding dysfunction model; type: in vivo, C57BL/6 female mice; conditions: compared with Dm
Method: as §2, §3

[8] = system: proNGF/p75^NTR axis; experiment: Bladder contractility in diabetic voiding dysfunction model; type: in vivo, C57BL/6 female mice; conditions: compared with Dm, week as printed in the cell
Method: as §2
Without blinding, i.p. injections of the drug molecules or the vehicle (PBS) were given weekly for four weeks, starting after 2 weeks of diabetes confirmation. A single starting proNGF mAb i.p. injection of 100 µg/mouse in 150 µl PBS was followed by 60 µg/mouse in 100µl PBS for the following three injections. THX-B was injected i.p. at a weekly dose of 50 µg/mouse in 125 µl PBS. […] Body weight was measured weekly and FSG fortnightly for all groups. […]

[9] = system: proNGF/NGF; experiment: Molecular changes in diabetic voiding dysfunction model: proNGF/NGF; type: in vivo, C57BL/6 female mice; conditions: compared with Dm
Method: (§4) Animal housing and treatments All experiments received the ethical approval from the Lady Davis Institute Ethics Board (No. 7859), Montreal, Canada. Housing and handling conformed with the Canadian Council for Animal Care (CCAC). One hundred and forty four 9-week-old C57BL/6 female mice were kept on a 12 h light/dark cycle with free access to food (standard Purina chow, Teklad Global, Wl, USA) and water. Diabetes was induced by i.p. injection of streptozotocin (60 mg/kg in citrate buffer, 10 mmol/l, pH 4.5 on 5 consecutive days) after 4-5 h fasting. Fasting serum glucose (FSG) was checked after 5-7 days using a glucometer (Contour next EZ, Bayer, ON, Canada) from the tail. FSG above 14 mmol/l was considered diabetic. Mice were divided into four groups without pre-considering their weight changes or glucose levels (for diabetic groups): control (42 mice); untreated diabetic (hereafter referred to as Dm; 42 mice); anti-proNGF mAb-treated diabetic mice (30 mice); and small molecule p75^NTR antagonist (THX-B)-treated diabetic mice (30 mice). […]
(§5) Without blinding, i.p. injections of the drug molecules or the vehicle (PBS) were given weekly for four weeks, starting after 2 weeks of diabetes confirmation. […] Body weight was measured weekly and FSG fortnightly for all groups. […]

[10] = system: TNF-a; experiment: Molecular changes in diabetic voiding dysfunction model: TNF-a; type: in vivo, C57BL/6 female mice; conditions: compared with Dm
Method: as §4, §5

[11] = system: proNGF/p75^NTR axis; experiment: Fasting serum glucose and bladder weight/morphology after drug washout (Figure 7); type: in vivo, C57BL/6 female mice; conditions: after the 3 week washout period; compared with Dm
Method: as §1

[12] = Persistence in systemic circulation in vivo; conditions: read-out: estimated systemic circulation half-life in vivo
Excerpt: In both the proNGF mAb and the THX-B treatments, the prolonged anatomical physiological effects on the bladder are likely to be due to a prolonged therapeutic effect rather than to the drugs remaining in circulation at therapeutic levels after a 3 week period, given that we have observed that anti-proNGF mAb is detectable in systemic circulation only for 2 weeks in previous studies.
as §4, with “diabetic.” for “diabetic. Mice were divided into four groups without pre-considering their weight changes or glucose levels (for diabetic groups): control (42 mice); untreated diabetic (hereafter referred to as Dm; 42 mice); anti-proNGF mAb-treated diabetic mice (30 mice); and small molecule p75^NTR antagonist (THX-B)-treated diabetic mice (30 mice).”

[13] = THX-B 4 mg/Kg intra-peritoneally twice a week from day 7, vs vehicle
[14] = compared with Dm, week as printed in the cell

## CC(C)NC(=O)N(C(=O)Cn1cnc2c1c(=O)n(C)c(=O)n2C)C(C)C [THX-B, 1,3-diisopropyl-1-[2-(1,3-dimethyl-2,6-dioxo-1,2,3,6-tetrahydro-purin-7-yl)-acetyl]-urea]
[1]; Figure 1 title, THX-B 4 mg/Kg intra-peritoneally twice a week
  melanoma spontaneous metastasis: reduces
[1]; [13]
  distal (lung) spontaneous metastasis: impaired
  local (lymph node) spontaneous metastasis: impaired
[2]
  lung spontaneous metastasis: reduce
[3]
  lymph node lymphangiogenesis (Lyve-1+ staining in inguinal lymph nodes): reduces; also recorded: decreased
[4]; females, 20 hours after injection 4mg/Kg
  organ distribution: lymph nodes: can be detected
[4]; intraperitoneal injection 4mg/Kg, males and female mice, said to suggest a short half-life
  detection levels: dropped 1 hour after injection
[4]; mouse, lymph nodes, oral dose 50mg/Kg, 8 hours
  concentration at 8 h: 9 ng/mL
[4]; mouse, tissues except lymph nodes, oral dose 50mg/Kg, 24h, read-out: tissue distribution: concentration in all the tissues except the lymph nodes
  concentration at 24 h: 12 to 20 ng/mL
[4]; oral gavage 10mg/Kg, compared with intraperitoneal injection
  half-life: similar
[4]; oral gavage 50mg/Kg
  half-life: sustained over time
[5]; after 2 weeks of treatment
  lower total voided volume compared with Dm: 50%
[5]; after 2 weeks of treatment, 2 h VSA, Dm 802.5±123µl
  total voided volume: 372 ± 73 µL
[5]; compared with Dm
  VSA: Volume per spot: ⇔
[5]; compared with Dm, except total voided volume for THX-B at 2 weeks
  effects on voiding frequency, total voided volume and mean volume per micturition: minimal effects
[5]; [14]
  VSA: Number of spots: ↓ (week 2)
  VSA: Total volume: ↓ (week 2)
[6]; compared with Dm
  Morphology: Collagen content: ↓
  Morphology: Detrusor: ↓
  Morphology: Mucosa: ↓
  Morphology: Overall thickness: ↓
[6]; compared with Dm, week of treatment as printed in the cell
  Bladder weight: ↓ (week 2,4)
[6]; following THX-B treatment, in spite of continuous hyperglycemia
  morphology of the bladder: improved
[7]
  Cystometry: Spontaneous activity: ⇔
[7]; week as printed in the cell
  Cystometry: Bladder capacity: ↓ (week 4)
  Cystometry: Bladder compliance: ⇔
[7]; inter-contraction interval, week as printed in the cell
  Cystometry: ICI: ↓ (week 4)
[8]; Electric field stimulation
  Contractility: EFS: ↑ (week 2,4)
[8]
  Contractility: Carbachol: ↑ (week 2,4)
  Contractility: KCI: ↑ (week 2,4)
[9]
  Molecular changes: proNGF/NGF: ↓
[10]
  Molecular changes: TNF-a: ↓↓
[11]
  Bladder weight: persistent absence of bladder hypertrophy; also recorded: maintained a significant difference
[12]
  half-life: 6 to 8 h
